Where a name gives a salt, the structure may show the parent alone.
Target: T1, 5-HT1A receptor (Homo sapiens, UniProt P08908)
T1 construct: expressed in transfected cells; host or cells: HEK293 (membranes)
T1 sequence (P08908 1-422): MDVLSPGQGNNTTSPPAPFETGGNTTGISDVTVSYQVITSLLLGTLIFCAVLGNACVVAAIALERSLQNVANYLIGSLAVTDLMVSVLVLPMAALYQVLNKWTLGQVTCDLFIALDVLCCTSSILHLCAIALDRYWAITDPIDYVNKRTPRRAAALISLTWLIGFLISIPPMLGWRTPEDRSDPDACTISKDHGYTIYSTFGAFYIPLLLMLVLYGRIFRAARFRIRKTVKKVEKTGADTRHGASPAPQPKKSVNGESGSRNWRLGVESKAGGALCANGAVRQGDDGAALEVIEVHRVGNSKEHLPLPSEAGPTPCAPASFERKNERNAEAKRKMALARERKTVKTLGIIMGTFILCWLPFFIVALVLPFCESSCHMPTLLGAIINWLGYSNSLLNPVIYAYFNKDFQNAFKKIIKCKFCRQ
Assay: GTPγS binding functional potency assay (primary screen), 5-HT1A
Assay type: biochemical
Conditions: assay a), membranes of HEK293 cells transfected with human 5-HT1A, read-out: fpKi at the 5-HT1A receptor
Method: a) Functional Potency—Primary Screen
The functional potency may be determined by the following GTPγS binding protocol. Cells used in the study are CHO Cells and Human Embryo Kidney (HEK293). Cells were transfected with DNA coding for human receptors as follows: HEK293—5-HT1A; CHO—5-HT1B; and CH—5-HT1D. Test compounds were initially dissolved in 100% dimethyl sulfoxide to a concentration of 10 mM. Serial dilution of the test compounds in 100% dimethyl sulphoxide was carried out using a Biomek FX in 384 well assay plates, so that the final top concentration of test compound is 3 μM in the assay. Add the test compound at 1.0% total assay volume (TAV) to a solid, white, 384 well assay plate (Costar). Add 50% TAV of precoupled (for 90 mins @ RT) membranes (5 ug/well), Wheatgerm Agglutinin Polystyrene Scintillation Proximity Assay beads (RPNQ0260 Amersham International) (0.25 mg/well) in 20 mM HEPES pH 7.4, 100 mM NaCl, 3 mM MgCl2 and 10 μM GDP. The third addition was a 20% TAV addition of either buffer, agonist format, or EC80 final assay concentration (FAC) of agonist, 5HT antagonist format, prepared in assay buffer. The assay was started by the addition of 29% TAV of GTPγS 0.38 nM FAC. After all additions assay plates were incubated at RT for 2-3 hours. Assay plates were counted on a Viewlux, 613/55 filter for 5 mins. Assay plates were read between 2-6 hours after the final addition.

Row | Structure (SMILES) | Ki [nM]
1 | CNC(=O)c1ncn2c1CCc1c(CCN3CCC(c4cccc5nc(C)ccc45)CC3)cccc1-2 [Example 83, N-methyl-6-{2-[4-(2-methyl-5-quinolinyl)-1-piperidinyl]ethyl}-4,5-dihydroimidazo[1,5-a]quinoline-3-carboxamide dihydrochloride] | < 10
2 | CNC(=O)c1ncn2c1ccc1c(CCN3CCC(c4cccc5nc(C)ccc45)CC3)cccc12 [Example 89, N-methyl-6-{2-[4-(2-methyl-5-quinolinyl)-1-piperidinyl]ethyl}imidazo[1,5-a]quinoline-3-carboxamide dihydrochloride] | < 10
3 | Cc1ccc2c(C3CCN(CCc4cccc5c4ccc4c(C(N)=O)ncn45)CC3)cccc2n1 [Example 91, 6-{2-[4-(2-methyl-5-quinolinyl)-1-piperidinyl]ethyl}imidazo[1,5-a]quinoline-3-carboxamide dihydrochloride] | < 10
4 | Cc1ccc2c(N3CCN(CCc4cccc5c4ccc4nnnn45)[C@H](C)C3)cccc2n1 [Example 94, 6-{2-[(2R)-2-methyl-4-(2-methyl-5-quinolinyl)-1-piperazinyl]ethyl}tetrazolo[1,5-a]quinoline dihydrochloride] | < 10
5 | CCOC(=O)c1nnn2c1ccc1c(CCN3CCN(c4cccc5nc(C)ccc45)CC3)cccc12 [Example 97, ethyl 6-{2-[4-(2-methyl-5-quinolinyl)-1-piperazinyl]ethyl}[1,2,3]triazolo[1,5-a]quinoline-3-carboxylate dihydrochloride] | < 10
6 | Cc1ccc2c(N3CCN(CCc4cccc5c4ccc4c(-c6nc(C)no6)ncn45)[C@H](C)C3)cccc2n1 [Example 105, 6-{2-[(2R)-2-methyl-4-(2-methyl-5-quinolinyl)-1-piperazinyl]ethyl}-3-(3-methyl-1,2,4-oxadiazol-5-yl)imidazo[1,5-a]quinoline dihydrochloride] | < 10
7 | Cc1ccc2c(C3CCN(CCc4cccc5c4CCc4c(C(N)=O)ncn4-5)CC3)cccc2n1 [Example 122, 6-{2-[4-(2-methyl-5-quinolinyl)-1-piperidinyl]ethyl}-4,5-dihydroimidazo[1,5-a]quinoline-3-carboxamide dihydrochloride] | < 10
8 | CNC(=O)c1ncn2c1COc1c-2ccc(C)c1CCN1CCC(c2cccc3nc(C)ccc23)CC1 [Example 124, N,7-dimethyl-6-{2-[4-(2-methyl-5-quinolinyl)-1-piperidinyl]ethyl}-4H-imidazo[5,1-c][1,4]benzoxazine-3-carboxamide dihydrochloride] | < 10
9 | Cc1ccc2c(C3CCN(CCc4c(C)ccc5c4OCc4c(C(N)=O)ncn4-5)CC3)cccc2n1 [Example 125, 7-methyl-6-{2-[4-(2-methyl-5-quinolinyl)-1-piperidinyl]ethyl}-4H-imidazo[5,1-c][1,4]benzoxazine-3-carboxamide dihydrochloride] | < 10

Reference: patent publication US20120022056A1, “FUSED TRICYCLIC DERIVATIVES FOR THE TREATMENT OF PSYCHOTIC DISORDERS” (priority 2005, published 2012)
